Test results as given in patent US12215389B2, “Compositions for detecting epigenetic modifications” (EXACT SCIENCES CORPORATION, priority 2007, dated 2025).

Test system: methylated gene promoters in fecal DNA
Assay: Real-time MSP on stool (fecal) DNA
Design: species or system human
Conditions: fecal samples; for Sens adenoma: 13 samples; for Sens CRC: 15 samples; for Spec: 19 samples
From the text: A standardized multicenter screening trial (The Netherlands) was initiated in 2006. In this trial, non symptomatic subjects aged 50 or above are screened with colonoscopy, FOBT and real-time MSP using DNA from stool and blood. In addition, prospectively collected stool samples from multiple centers (Germany and The Netherlands) were used. In these trials, symptomatic patients, attending a Gastroenterology clinic and ultimately diagnosed with CRC, provided a stool sample for use in real-time MSP. From the ongoing trials 147 stool samples were available for the present study. 3 main categories of stool samples were used: 67 samples with no suspicious findings, 58 adenomas and 22 samples from patients covering all stages of CRC, with 90% representing early stage disease.
After defecation in a special bucket, patients added 250 ml of stool homogenization buffer (Amresco, Solon, Ohio, USA) to the sample. Samples were shipped to the laboratory and further processed within 72 hours after defecation. Stool homogenization buffer was added to a ratio 1:7, and the samples were homogenized and aliquoted in portions of 32 ml.
Single aliquots (32 ml containing the equivalent of 4 g of stool) were centrifuged for 5 minutes at 2540 rcf at 20° C. The supernatant was retained and centrifuged a second time (10 minutes at 16500 rcf at 4° C.). 22 ml of the supernatant obtained following the second centrifugation step was incubated with 5 μl Rnase A for 60 minutes at 37° C. Total DNA was then SodiumAcetate (pH 5.2)-isopropanol precipitated and washed with 70% ethanol. The DNA was resuspended in 4 ml 1×TE (pH 7.4). 400 μl 10× buffer (240 mM EDTA (pH=8.0), 750 mM NaC), 400 μl 10% SDS, and 20 μl Proteinase K (20 mg/ml) was added and the samples were incubated at 48° C. overnight at constant shaking (225 RPM). After centrifugation (3000 RCF for 30 seconds at room temperature), 5 ml of Phenol:Chloroform:Isoamylalcohol (25:24:1, v/v:Invitrogen) was added and incubated for 10 minutes at room temperature shaking at 225 RPM and centrifuged for 5 minutes at 3000 RCF. The aqueous layer was transferred to a new tube containing 5 ml of Phenol:Chloroform:Isoamylalcohol. Again, the samples were incubated for 10 minutes at room temperature shaking at 225 RPM and centrifuged for 5 minutes at 3000 RCF at room temperature. The aqueous layer was transferred to a new tube and DNA was precipitated by adding 500 μl 7.5 M Ammonium Acetate, 5 μl glycogen and 10 ml of cold 100% Ethanol (−20° C.), further incubated at −20° C. for at least 1 hour and centrifuged at 15000 RCF for 30 minutes at 4° C. Pellets were washed with 3.5 ml freshly prepared 70% Ethanol and air dried. Pellets were finally resuspended in 2 ml of LoTE pH 8.0 and stored at −80° C., until further processing.
An upscaled DNA modification step was applied to 32 μg of the obtained DNA. 16 Aliquots of 2 μg of DNA were subjected to bisulfite modification in 96-wells format on a pipetting robot (Tecan), using the EZ-96DNA Methylation kit (Zymo Research), according to the manufacturer's protocol. Basically, aliquots of 45 μl were mixed with 5 μl of M-Dilution Buffer and incubated at 37° C. for 15 minutes shaking at 1100 rpm. Then 100 μl of the diluted CT Conversion Reagent was added and samples were incubated at 70° C. for 3 hours, shaking at 1100 rpm in the dark. After conversion, the samples were desalted by incubation on ice for 10 minutes and addition of 400 μl of M-Binding buffer. The samples were loaded on a Zymo-Spin I Column in a collection tube and after centrifugation washed with 200 μl of M-Wash Buffer. 200 μl of M-Desulphonation Buffer was put onto the column and incubated at room temperature for 15 minutes. After centrifugation of the columns, they were washed twice with 200 μl of M-Wash Buffer. Finally, the DNA was washed from the column in 50 μl Tris-HCl 1 mM pH8.0 and stored at −80° C., until further processing.

Substance | Sens adenoma [%] | Sens CRC [%] | Spec [%]
GATA5 (DNA AGTTCGTTTTTAGGTTAGTTTTCGGC; listed as DNA, chemistry not given here) | 0 | 27 | 100
SFRP1 (DNA TGTAGTTTTCGGAGTTAGTGTCGCGC; listed as DNA, chemistry not given here) | 8 | 67 | 100
